Experimental data published in patent US20190038711A1, “Medicament For Treating Pulmonary Tuberculosis” (Shandong Zhonghai Pharmaceutical CO. LTD, priority 2016, published 2019).

Tested on: airway hyperresponsiveness
Assay: Experiment on airway hyperresponsiveness (late-phase airway response, APTI)
Assay type: in vivo
Settings: sensitized mice, acetylcholine 50 μg/kg i.v.; medicament 1 g three times a day intragastric for 17 days; dexamethasone 0.5 ml/kg i.p. daily
Experimental: According to the Above Embodiments 13-18, an Experiment on Airway Hyperresponsiveness was Conducted, with an Experimental Method and Effects being Shown Below:
(1) mice for the experiment: the male mice for this experiment were 6 weeks old;
(2) dose: the dose for each mouse was 3 g/day, 3 times a day;
(3) antigen sensitization, allergy attack and treatment: 200 μg of conalbumin (CA) and 2 mg of dinitrobenzene (DNP)-bound albumin were dissolved in 0.3 ml of buffer solution PBS and then […] injected into mice for sensitization twice at an interval of one week. The mice were anesthetized 7 days later after the second sensitization, and were intratracheally provided with 0.05 ml of buffer solution PBS containing 100 μg of conalbumin (CA) to induce an allergy attack. On the 20th day and the 30th day, a further allergy attack was induced by the same method at twice dose. The mice having an allergy attack were divided into 9 groups 24 hours later after the first allergy attack. […]
(4) measurement of late-phase airway response: on the third day after the last allergy attack, the mice of the above 8 groups were intravenously injected with acetylcholine, and then the airway pressure changes of these mice and those of group 9 were all measured to reflect airway responses. […]

SMILES: C[C@@H]1C[C@H]2[C@@H]3CCC4=CC(=O)C=C[C@]4(C)[C@@]3(F)[C@@H](O)C[C@]2(C)[C@@]1(O)C(=O)CO [dexamethasone]
- APTI (airway pressure-time index): 565 ± 31 centimeter water column per second
